Test results taken from US11679108B2, “Aromatic heterocyclic compound, and pharmaceutical composition and use thereof” (GUANGZHOU HENOVCOM BIOSCIENCE CO., LTD., priority 2018, dated 2023).

Target: ATX (Homo sapiens, UniProt Q13822)
Assay: Analysis in vitro: LPC was used as substrate for screening enzyme activity (Amplex Red fluorescence)
Format: biochemical
Conditions: inhibitory activity against ATX, with LPC as substrate
Source text: Analysis In Vitro: LPC was Used as Substrate for Screening Enzyme Activity
Principle: Lysophosphatidylcholine (LPC) as substrate is hydrolyzed by using the activity of lysoPLD enzyme, to produce lysophosphatidic acid (LPA) and choline, which is oxidized to produce H2O2 under the action of choline oxidase. In presence of horse radish peroxidase (HPR), Amplex Red reagent is reacted with H2O2 in a quantitative chemistry ratio of 1 to 1, to produce strong fluorescence products, which are detected by a fluorescent quantitative test.
Experimental procedures: the compounds to be tested were dissolved in DMSO, to prepare 10 mM of stock solution, which was diluted in a gradient concentration of 3 times with DMSO from 10 mM, to generate 10 concentration gradients. The reaction buffer solution was used for preparing a mixed solution 1 of 2 ng/μl ATX, 2 U/ml HRP and 0.2 U/ml choline oxidase in a final concentration. 20 μl of the above mixed solution 1 was added to each hole of an experiment board, […]. The compounds diluted with DMSO were transferred into an experiment board with Echo550. The reaction buffer solution was used for preparing a mixed solution 2 of […] LPC and 400 μM Amplex Red in a final concentration. 20 μl of the above mixed solution 2 was added to each hole of the experiment board. After addition, the experiment board was shook for 30 seconds on a shaker, and incubated for 30 minutes. Envision was used to read the fluorescence signals with an exciting light at 530 nm and emitted light at 590 nm. Inhibition ratio of the compounds to enzyme reaction was calculated according to the ratio of fluorescence, and IC50 of the compounds was analyzed and calculated by software, seeing Table 1.

IC50 | Compound
100 to 500 nM | CCc1nc2sc(N3CCN(CC(=O)N4CC(O)C4)[C@H](CO)C3)nn2c1N(C)c1nc(-c2ccc(F)cc2)c(C#N)s1 [Example 82, (S)-2-{[6-ethyl-2-(4-(2-(3-hydroxyazetidin-1-yl)-2-oxoethyl)-3-(hydroxymethyl)piperazin-1-yl)imidazo[2,1-b][1,3,4]thiadiazol-5-yl](methyl)amino}-4-(4-fluorophenyl)thiazole-5-carbonitrile]
100 to 500 nM | CCc1nc2sc(N3CCC(N(C)C(=O)NC(C)(C)C)C3)nn2c1N(C)c1nc(-c2ccc(F)cc2)c(C#N)s1 (stereo not shown) [Example 25, 3-tertbutyl-1-{1-[5-((5-cyano-4-(4-fluorophenyl)thiazol-2-yl)(methyl)amino)-6-ethylimidazo[2,1-b][1,3,4]thiadiazol-2-yl]pyrrolidin-3-yl}-1-methylurea]
0.01 to 100 nM | CCc1nc2sc(N3CCN(CC(=O)N4CC(O)C4)[C@H](C(=O)OC)C3)nn2c1N(C)c1nc(-c2ccc(F)cc2)c(C#N)s1 [Example 81, methyl (S)-4-{5-[(5-cyano-4-(4-fluorophenyl)thiazol-2-yl)(methyl)amino]-6-ethylimidazo[2,1-b][1,3,4]thiadiazol-2-yl}-1-(2-(3-hydroxyazetidin-1-yl)-2-oxoethyl)piperazine-2-carboxylate]
0.01 to 100 nM | CCc1nc2sc(N3CCC(N(C)CC(=O)N4CCOCC4)C3)nn2c1N(C)c1nc(-c2ccc(F)cc2)c(C#N)s1 (stereo not shown) [Example 34, 2-{[6-ethyl-2-(3-(methyl(2-mophlin-2-oxoethyl)amino)pyrrolidin-1-yl)imidazo[2,1-b][1,3,4]thiadiazol-5-yl](methyl)amino}-4-(4-fluorophenyl)thiazole-5-carbonitrile]
0.01 to 100 nM | CCc1nc2sc(N3CCC(N(C)C(=O)NC)C3)nn2c1N(C)c1nc(-c2ccc(F)cc2)c(C#N)s1 (stereo not shown) [Example 29, 1-{1-[5-((5-cyano-4-(4-fluorophenyl)thiazol-2-yl)(methyl)amino)-6-ethylimidazo[2,1-b][1,3,4]thiadiazol-2-yl}pyrrolidin-3-yl}-1,3-dimethylurea]
≥ 1000 nM | CCc1nc2sc(N3CC[C@@H](N(CC(=O)N4CC(O)C4)CC4CC4)C3)nn2c1N(C)c1nc(-c2ccc(F)cc2)c(C#N)s1 [Example 90]
100 to 500 nM | CCc1nc2sc(N3CCC(N(C)C(=O)NC4CC4)C3)nn2c1N(C)c1nc(-c2ccc(F)cc2)c(C#N)s1 (stereo not shown) [Example 27, 1-{1-[5-((5-cyano-4-(4-fluorophenyl)thiazol-2-yl)(methyl)amino)-6-ethylimidazo[2,1-b][1,3,4]thiadiazol-2-yl}pyrrolidin-3-yl}-3-cyclopropyl-1-methylurea]
≥ 1000 nM | CN(c1nc(-c2ccc(F)cc2)c(C#N)s1)c1c(CCOCc2ccccc2)nc2sc(N3CC[C@@H](N(C)CC(=O)N4CC(O)C4)C3)nn12 [Example 86]
100 to 500 nM | CCc1nc2sc(C3CCN(C(N)=O)CC3)nn2c1N(C)c1nc(-c2ccc(F)cc2)c(C#N)s1 [Example 18, 4-{5-[(5-cyano-4-(4-fluorophenyl)thiazol-2-yl](methyl)amino]-6-ethylimidazo[2,1-b][1,3,4]thiadiazol-2-yl}piperidine-1-carboxamide]
0.01 to 100 nM | CCc1nc2sc(N3CCC(N(C)CC(=O)N4CC(C(=O)O)C4)C3)nn2c1N(C)c1nc(-c2ccc(F)cc2)c(C#N)s1 (stereo not shown) [Example 35, 1-{2-[(1-(5-((5-cyano-4-(4-fluorophenyl)thiazol-2-yl)(methyl)amino)-6-ethylimidazo[2,1-b][1,3,4]thiadiazol-2-yl)pyrrolidin-3-yl)(methyl)amino]acetyl}azetidine-3-carboxylic acid]
100 to 500 nM | CCc1nc2sc(N3CCC(N(C)C(=O)N(C)C)C3)nn2c1N(C)c1nc(-c2ccc(F)cc2)c(C#N)s1 (stereo not shown) [Example 31, 1-{1-[5-((5-cyano-4-(4-fluorophenyl)thiazol-2-yl)(methyl)amino)-6-ethylimidazo[2,1-b][1,3,4]thiadiazol-2-yl]pyrrolidin-3-yl}-1,3,3-trimethylurea]
500 to 1000 nM | CCc1nc2sc(N3CCC4(CC3)CN(S(C)(=O)=O)C4)nn2c1N(C)c1nc(-c2ccc(F)cc2)c(C#N)s1 [Example 3, 2-{[6-ethyl-2-(4-(methylsulfonyl)-2,7-diazaspiro[3.5]nonan-7-yl)imidazo[2,1-b][1,3,4]thiadiazol-5-yl](methyl)amino}-4-(4-fluorophenyl)thiazole-5-carbonitrile]
500 to 1000 nM | CCc1nc2sc(N3CC4(C3)CN(S(C)(=O)=O)C4)nn2c1N(C)c1nc(-c2ccc(F)cc2)c(C#N)s1 [Example 5]

Target: T1, ATX in human plasma (Homo sapiens, UniProt Q13822)
T1 construct: blank plasma was derived from at least 6 individual people; from tissue; host or cells: human plasma (pooled from at least 6 individuals)
Assay: Analysis in vitro: detection of LPA in human plasma for screening activity (LPA 18:2 by LC/MS/MS)
Format: biochemical
Conditions: incubated 2 hours at 37° C., LPA 18:2 detected by LC/MS/MS
Source text: Analysis In Vitro: Detection of LPA in Human Plasma for Screening Activity
Principle: LPC in plasma being used as a substrate, the produced LPA 18:2 (LPA 17:0 as an internal standard) is detected by LC/MS/MS quantitative analysis. At different concentrations of the compounds to be tested, the percentage of residual activity is obtained by the ratio of the production of LPA18:2 to that in the absence of the compounds to be tested, thereby calculating IC50 values.
Experiment procedures: blank plasma was derived from at least 6 individual people. The compounds to be tested were diluted from stock solution in 3-fold dilution gradient, to produce 8 concentrations of working solution (with zero) in series. 10 μL of the melting blank plasma samples were taken and iced methanol solution containing internal standard (LPA 17:0) was added to it, so that the mixture directedly performed protein precipitation, which served as a system control sample. 2 μL of the working solution in different concentration was taken and 198 μL of blank human plasma was added, which was incubated with a concentration of 0 to 10 μM. The samples were placed at an incubater containing 5% CO2 at 37° C., and incubated for 2 hours. When the incubation was completed, 10 μL of plasma sample was taken and appropriate volume of iced methanol solution containing internal standard (LPA 17:0) was added into it, so that the mixture directedly performed protein precipitation. The precipitation was centrifuged to take supernatant. LPA 18:2 was detected by LC/MS/MS and IC50 values were analyzed and calculated by software, seeing Table 2.

IC50 | Compound
0.01 to 100 nM | CCc1nc2sc(N3C[C@@H]4C[C@H]3CN4CC(=O)N3CC(O)C3)nn2c1N(C)c1nc(-c2ccc(F)cc2)c(C#N)s1 [Example 58, 2-{[6-ethyl-2-((1S,4S)-5-(2-(3-hydroxyazetidin-1-yl)-2-oxoethyl)-2,5-diazabicyclo[2.2.1]heptan-2-yl)imidazo[2,1-b][1,3,4]thiadiazol-5-yl](methyl)amino}-4-(4-fluorophenyl)thiazole-5-carbonitrile]
100 to 500 nM | CCOC(=O)CN(C)C1CCN(c2nn3c(N(C)c4nc(-c5ccc(F)cc5)c(C#N)s4)c(CC)nc3s2)C1 (stereo not shown) [Example 48]
0.01 to 100 nM | CCc1nc2sc(N3CC[C@@H](N(C)C(C)C(=O)N4CC(O)C4)C3)nn2c1N(C)c1nc(-c2ccc(F)cc2)c(C#N)s1 (stereo partly drawn) [Example 78, 2-{[6-ethyl-2-((3R)-3-((1-(3-hydroxyazetidin-1-yl)-1-oxopropan-2-yl)(methyl)amino)pyrrolidin-1-yl)imidazo[2,1-b][1,3,4]thiadiazol-5-yl](methyl)amino}-4-(4-fluorophenyl)thiazol-5-carbonitrile]
100 to 500 nM | CCc1nc2sc(N3CC4CN(CC(=O)N5CC(C#N)C5)CC4C3)nn2c1N(C)c1nc(-c2ccc(F)cc2)c(C#N)s1 (stereo not shown) [Example 57, 2-{[6-ethyl-2-(5-(2-(3-cyanoazetidin-1-yl)-2-oxoethyl)hexahydropyrrolo[3,4-c]pyrrol-2(1H)-yl)imidazo[2,1-b][1,3,4]thiadiazol-5-yl](methyl)amino}-4-(4-fluorophenyl)thiazole-5-carbonitrile]
100 to 500 nM | CCc1nc2sc(N3CCC4(CN(CC(=O)N5CC(C#N)C5)C4)C3)nn2c1N(C)c1nc(-c2ccc(F)cc2)c(C#N)s1 [Example 55, 2-{[6-ethyl-2-(2-(2-(3-cyanoazetidin-1-yl)-2-oxoethyl)-2,6-diazaspiro[3.4]octane-6-yl)imidazo[2,1-b][1,3,4]thiadiazol-5-yl](methyl)amino}-4-(4-fluorophenyl)thiazole-5-carbonitrile]
0.01 to 100 nM | CCc1nc2sc(N3CCN(CC(=O)N4CC(O)C4)C(C)(C)C3)nn2c1N(C)c1nc(-c2ccc(F)cc2)c(C#N)s1 [Example 65, 2-{[6-ethyl-2-(4-(2-(3-hydroxyazetidin-1-yl)-2-oxoethyl)-3,3-dimethylpiperazin-1-yl)imidazo[2,1-b][1,3,4]thiadiazol-5-yl](methyl)amino}-4-(4-fluorophenyl)thiazole-5-carbonitrile]
0.01 to 100 nM | CCc1nc2sc(N3CC(N(C)CC(=O)N4CC(O)C4)C3)nn2c1N(C)c1nc(-c2ccc(F)cc2)c(C#N)s1 [Example 63]
0.01 to 100 nM | CCc1nc2sc(N3C[C@H](C)N(CC(=O)N4CC(O)C4)C[C@@H]3C)nn2c1N(C)c1nc(-c2ccc(F)cc2)c(C#N)s1 [Example 74, 2-{[6-ethyl-2-((2S,5S)-4-(2-(3-hydroxyazetidin-1-yl)-2-oxoethyl)-2,5-dimethylpiperazin-1-yl)imidazo[2,1-b][1,3,4]thiadiazol-5-yl](methyl)amino}-4-(4-fluorophenyl)thiazole-5-carbonitrile]

Compound | IC50
CCc1nc2sc(N3CC4CCC(C3)N4CC(=O)N3CC(O)C3)nn2c1N(C)c1nc(-c2ccc(F)cc2)c(C#N)s1 [Example 70, 2-{[6-ethyl-2-(8-(2-(3-hydroxyazetidin-1-yl)-2-oxoethyl)-3,8-diazabicyclo[3.2.1]octan-3-yl)imidazo[2,1-b][1,3,4]thiadiazol-5-yl](methyl)amino}-4-(4-fluorophenyl)thiazole-5-carbonitrile] | 100 to 500 nM
